From patent US12366572B2, “Activation of bioluminescence by structural complementation” (Promega Corporation, priority 2013, dated 2025) come the findings set out here.

The test system of one data set is HELA cells. The experiment in a line: NLpep86-tagged firefly luciferase constructs in HELA cells detected with NLpoly11S reagent or Fluc activity (Example 141). In kind it is cell-based. Particulars: 48 hours after transfection. How it is done:
Validating the Use of Spontaneously Interacting NLpep86 as an Epitope Tag for Proteins Degraded by the Proteasome Experiments were conducted during development of embodiments of the present invention to validate the use of NLpep86 as a tag to monitor expression levels of proteins degraded by the proteasome. To do this, Nlpep86 was fused to firefly luciferase variants that were also fused to either one or more PEST, CL1 or ubiquitin sequences (pBC21, 22, 24-29). Each of these constructs is expected to undergo proteasome-mediated turnover to varying degrees following expression from a mutant CMV promoter (d1CMV).
The constructs pBC21, 22, 24-29 and control constructs expressing untagged firefly luciferase or untagged firefly luciferase fused to a PEST sequence (ATG082 and ATG083) were transiently transfected into HELA cells plated at 10,000 cells per well in a 96-well plate using 100 μL of DMEM+10% FBS. […] Protein expression levels were quantified in replicate wells for each construct by detecting firefly luciferase activity or by adding a detection reagent containing NLpoly11S (purified NLpoly11S added to NanoGlo®).
After a 48 hour incubation, 100 uL NanoGlo® […] reagent (90 ul of NLpoly11S in 50 ml of NanoGlo® assay reagent was added to each well and incubate for 3 minutes with shaking. Luminescence was then read on GloMax luminometer (0.5 sec/well).

Data set [1] deals with NLpoly11S. The data set can be described thus: Dark and quencher peptides: background signal from NLpoly11S (Example 153). Type of data set: biochemical. Particulars: NLpoly11S in NanoGlo reagent, 5 min. How it is done: A purified sample of NLpoly11S was diluted into NanoGlo reagent to give a final concentration of 2 uM. Pep86 is a high affinity luminogenic peptide and was used to induce maximum signal for NLpoly11S. Pep86 was prepared at 1 nM in PBS (pH 7.2) for a working solution. Dark peptide and quencher peptides (FIG. 180) were dissolved to 1 mM (or lower) in either PBS pH 7.2 or 150 mM NH4HCO3 and added in equal volume to the NanoGlo/NLpoly11S and then samples were read on a Tecan Infinite F500 reader using a 5 min time point.

For a further data set, the target named is BRD4/Histone H3.3 (Homo sapiens, UniProt O60885). The experiment in a line: Inhibition of NLpoly11S-BRD4 / Histone H3.3-NLpep114 interaction in HEK293T cells (Example 128).
The test system of data set [2] is NLpoly11S. The experiment in a line: Binding of NLpoly11S to synthetic NLPep78/79 and N- or C-terminal HaloTag fusions (Examples 107, 108). Particulars: E. coli lysates, NanoGlo + 100 uM Fz. The procedure:
Fusions of NLpep78-HaloTag (78-HT) and HaloTag-NLPep78 (HT-78) were quantitated, with a GST-HaloTag® fusion (GST-HT) as a control, by labeling E. coli lysates with the HaloTag-TMR® ligand, separated by SDS-PAGE, and scanned on Typhoon. A standard curve was then created using known concentrations of GST-HT standard, and band intensities of 78-HT and HT-78 were used to determine their concentrations.
E. coli lysates containing NLpoly11S were diluted 1:107 into PBS pH 7+0.1% Prionex. Serial dilutions of 78-HT, HT-78, and synthetic NLpep78 were made in PBS pH 7+0.1% Prionex. 20 uL NLpoly11S and 20 μL of one of the NLPep were mixed and incubated at ambient temperature for 5 minutes. 40 uL NanoGlo® reagent (Promega Corporation)+100 uM Fz were added, and the samples incubates at ambient temperature for 5 min. Luminescence was measured on GlomaxMulti+ using 0.5 s integration. Data was fit to one-site, specific binding using GraphPad Prism to determine Bmax and Kd.
Fusions of NLpep79-HaloTag (79-HT) and HaloTag-NLPep79 (HT-79) were quantitated, with a GST-HaloTag® fusion (GST-HT) as a control, by labeling E. coli lysates with the HaloTag-TMR® ligand, separated by SDS-PAGE, and scanned on Typhoon. A standard curve was then created using known concentrations of GST-HT standard, and band intensities of 79-HT and HT-79 were used to determine their concentrations.
E. coli lysates containing NLpoly11S were diluted 1:107 into PBS pH 7+0.1% Prionex. Serial dilutions of 79-HT, HT-79, and synthetic NLpep79 were made in PBS pH 7+0.1% Prionex. 20 uL NLpoly11S and 20 μL of one of the NLPep were mixed and incubated at ambient temperature for 5 minutes. 40 uL NanoGlo® reagent (Promega Corporation)+100 uM Fz were added, and the samples incubates at ambient temperature for 5 min. Luminescence was measured on GlomaxMulti+ using 0.5 s integration. Data was fit to one-site, specific binding using GraphPad Prism to determine Bmax and Kd.

The test system of data set [3] is circularly permuted Nluc (CP Nluc). The data set can be described thus: Inhibition of circularly permuted NanoLuc luciferase by dark peptides (Example 138). In kind it is biochemical. Particulars: synthetic dark peptide dose-response, NanoGlo reagent, 5 min. How it is done:
Recombinant CP Nluc was prepared as a soluble fraction of an E. coli 5×-concentrated lysate (T7-promoter; overnight expression). A 10,000-fold dilution of the CP Nluc in Assay Buffer (PBS pH 7/0.01% Prionex/1 mM DTT/0.005% Tergitol) was used. Synthetically-derived dark peptides were prepared across a range of concentrations, also in the Assay Buffer. Reactions were set up using 30 μL of CP NLuc and 60 μL of Dark peptide and assayed by adding 90 μL NanoGlo® assay reagent (Promega Corporation). Luminescence was measured (5 min) on a Tecan Infinite F500 reader (100 ms integration). Three replicates were used for Dark peptide samples. Two replicates were used for buffer controls (acetic acid from peptide stocks).

A further data set has as its system NLpoly11S and NLpep114. The experiment in a line: Inhibition of NLpoly11S/NLpep114 binding by dark peptides (Examples 136, 137). In kind it is biochemical. Particulars: for Signal of dark peptide with NLpoly11S on its own: no NLpep114 (Example 137). The procedure: In FIG. 183A, 50 nM NLpoly11S was mixed with […] NLpep114 and 37.5 μM dark peptide (DP) candidate (Q-162, A-162, K-162 or E-162). NanoGlo® assay reagent (Promega Corporation) was added and incubated for 5 minutes. Luminescence was detected. In FIG. 183B, 50 nM NLpoly11S in assay buffer (PBS pH7+0.01% Prionex+1 mM DTT+0.005% Tergitol) was mixed with 7.5 μM NLpep114 (also in assay buffer) and variable amounts of dark peptide (DP) candidates Q-162 or K-162 (also in assay buffer). NanoGlo® assay reagent (Promega Corporation) was added and incubated for 5 minutes. Luminescence was detected on a Tecan Infinite F500 reader; 100 ms integration time; 5 min time point used.
In FIG. 184A, 5 nM NLpoly11S was mixed with 500 nM NLpep114 and variable amounts of a dark peptide (DP) candidate Q-162 or A-162 (n=3). NanoGlo® assay reagent (Promega Corporation) was added and incubated for 5 minutes. Luminescence was detected.
In FIG. 184B, 5 nM NLpoly11S in assay buffer was mixed with variable amounts of dark peptide (DP) candidates Q-162 or A-162 in assay buffer (no NLpep114)(n=3). NanoGlo® assay reagent (Promega Corporation) was added and incubated for 5 minutes. Luminescence was detected.

A further data set deals with NLpoly 5P. The experiment in a line: Titration of NLpoly 5P with NLpep88-HT (Example 47). Type of data set: biochemical. Particulars: serial dilutions of NLpep88-HT lysate.
In data set [4] the test system is wt Oplophorus 157-169 peptide. The data set can be described thus: Relative specific activity in HEK293T lysates (Example 143). Type of data set: biochemical. The note with it: averages of Vmax and Bmax normalized to NanoLuc. How it is done:
Each clone was inserted into pFN21A HaloTag® CMV Flexi® Vector (Promega G2821), and lysates were prepared as follows: 3 ml HEK293T cells that have been diluted to a concentration of 200,000 cells/ml (600,000 cells total) were plated into each well of a 6-well plate and grown overnight at 37° C. in a CO2 incubator. The following day transfection complexes of each DNA were prepared by combining […] of DNA, Opti-MEM® (Life Technologies 11058-021) to a final volume of 310 μl and 20 μl of FuGENE® HD (Promega E231a). The transfection complexes were incubated for 20 minutes and then 150 μl of each complex added in duplicate to cells. The cells were grown overnight 37° C. in a CO2 incubator. The following day, the cells were washed cells with DPBS (Life Technologies 14190-144), and 1 ml fresh DPBS added. Cells were frozen to lyse and then thawed for testing. Duplicate transfection reactions lysates were combined.
In order to compare the specific activities of Nluc (full length enzyme) to wt Oplophorusl-156 and NLpoly11S in combination with wt Oplophorus 157-169 peptide (binary proteins), substrate titrations were run for all of the samples, but for the binary samples substrate titrations were run at multiple peptide concentrations. Using this format, it was possible to calculate a Vmax value for Nluc and both Vmax and Bmax values for NLpoly11S and wt Oplophorus 1-156. Three separate experiments were run using this format and Vmax and Bmax values were normalized to the Vmax of NanoLuc. Relative specific activities (calculated as averages of Vmax and Bmax) are normalized to NanoLuc.

Setting [5] is: high purity (>95%) peptides, 5 nM NLpoly11S, 500 nM NLpep114 (Example 137).

Primed or numbered codes have the meaning given here. No end group written: not given here. *: point of attachment. Dabcyl′ = N-terminal Dabcyl quencher, CN(C)c1ccc(/N=N/c2ccc(C(=O)*)cc2)cc1 Where only a bound is given, the exact number is not on record here.

Regarding BC26: MVSGWRLFKKIS-GGSGGGGSGG-Fluc-CP, the “Relative brightness of construct (Fluc and NLpep86 signals)” value in the data set on HELA cells is “least bright”.

GWALFKK: in the data set on NLpoly11S [1], the “Background luminescence generated by NLpoly11S in the absence of other luminogenic peptide” value was “reduce the background luminescence generated by NLpoly11S”.

In the case of `COc1cc2c(cc1-c1c(C)noc1C)ncc1[nH]c(=O)n([C@H](C)c3ccccn3)c12` [IBET-151], the “Time within which the decline in luminescence occurs” value at BRD4/Histone H3.3 (0-500 nM IBET-151, time course) was no more than 3 h. In addition, the “Effect on luminescence of NLpoly11S-BRD4 / Histone H3.3-NLpep114” value on BRD4/Histone H3.3 (0 to 10 μM, 4 h at 37° C.) was “dose-dependent decline in luminescence”.

For the molecule VTGWALFEEIL, the “Luminescence relative to background (NLpoly11S alone; no peptide control)” value with NLpoly11S [1] is given as “induce luminescence over background”.

NVSGWRLFKKISN [NLPep78]: in the data set with NLpoly11S [2], the “Binding affinity to NLpoly11S: synthetic vs N- or C-terminal HaloTag fusion” value was “not found to change significantly” and the “Bmax with NLpoly11S when NLPep at the C-terminus of HaloTag” value was “reduced”.

In the case of VSGWALFKKIS [Ala-162], the “Inhibition of generation of luminescence by CP Nluc” value in data set [3] is on record as greater than 2 logs. Besides, the “Signal of dark peptide with NLpoly11S on its own” value in the data set on NLpoly11S and NLpep114 (5 nM NLpoly11S) is recorded as “subtle at best”. Further, the “Inhibition of binding between NLpoly11S and NLpep114” value with NLpoly11S and NLpep114 (setting [5]) is “dose-dependent”; with NLpoly11S and NLpep114 (high purity (>95%) peptides, 5 nM NLpoly11S, 500 nM NLpep114 (Example 137), listed as Ala peptide), “most potent as an inhibitor”.

Consider “DAB-GWALFKK ({Dabcyl′}-GWALFKK) [Dabcyl-GWALFKK]”, for which the “Background luminescence generated by NLpoly11S in the absence of other luminogenic peptide” value in the data set on NLpoly11S [1] is recorded as “reduce the background luminescence generated by NLpoly11S”.

On to VSGWQLFKKIS [Gln-162], for which, in data set [3], the “Inhibition of generation of luminescence by CP Nluc” value is listed as greater than 1 logs. In addition, the “Signal of dark peptide with NLpoly11S on its own” value with NLpoly11S and NLpep114 (5 nM NLpoly11S) was “produces a signal on its own in a dose-dependent manner”. Moreover, the “Inhibition of binding between NLpoly11S and NLpep114” value in the data set with NLpoly11S and NLpep114 (array peptides, 50 nM NLpoly11S, 7.5 μM NLpep114 (Example 136)) is recorded as “dose-dependent”; in the data set on NLpoly11S and NLpep114 (setting [5]) it was “dose-dependent”.

As for “NLpep88: NLpep78 with Gly as 6th residue instead of Arg, HT fusion lysate (MNVSGWGLFKKISN; also: HT fusion (lysate))”, in the data set with NLpoly 5P, the “Luminescence with NLpoly 5P” value was “no increase in luminescence above 5P alone at lower concentrations”.

Turning to VTGYALFEEIL, in the data set on NLpoly11S [1], the “Luminescence relative to background (NLpoly11S alone; no peptide control)” value is reported as “induce luminescence over background”.

In the case of NVTGYRLFKKISN [NLPep79], in the data set with NLpoly11S [2], the “Binding affinity to NLpoly11S: synthetic vs N- or C-terminal HaloTag fusion” value is on record as “not found to change significantly” and the “Bmax with NLpoly11S when NLPep at the C-terminus of HaloTag” value is “reduced”.

Regarding BC21: MVSGWRLFKKIS-GGSGGGGSGG-Fluc, the “Relative brightness of construct (Fluc and NLpep86 signals)” value with HELA cells is “brightest”.

B1: NanoLuc: full-length NanoLuc luciferase (Promega), SEQ ID NO: 2157 (protein)
chain: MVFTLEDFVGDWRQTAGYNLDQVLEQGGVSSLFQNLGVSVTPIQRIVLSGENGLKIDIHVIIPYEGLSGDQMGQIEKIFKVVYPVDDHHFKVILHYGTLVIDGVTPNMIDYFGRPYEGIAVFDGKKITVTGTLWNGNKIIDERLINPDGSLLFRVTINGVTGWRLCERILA
In the case of B1, the “Relative specific activity (*with wt 157-169 peptide)” value in data set [4] is reported as 1.00.

B2: wt 1-156: Wild-Type Oplophorus Luciferase Residues 1-156 (protein)
chain: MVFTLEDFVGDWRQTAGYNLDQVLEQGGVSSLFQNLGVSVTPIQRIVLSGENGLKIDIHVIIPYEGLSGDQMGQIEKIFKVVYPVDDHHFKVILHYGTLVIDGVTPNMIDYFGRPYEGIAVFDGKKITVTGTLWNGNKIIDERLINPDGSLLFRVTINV
Take B2: the “Relative specific activity (*with wt 157-169 peptide)” value in data set [4] is 0.07*.
